Drawing on a melting point compilation (Tetko et al.; mined from patent text by program, amines drawn as free bases though some values may be those of a salt), this text covers melting point for 93 compounds.

The compound `COc1ccc(C(=O)c2ccc(OCc3coc(-c4ccccc4)n3)cc2)c(OC(C)(C)C(=O)O)c1` had a melting point of 165 to 167 °C.
Next, `COc1cc(C)c(S(=O)(=O)c2ccccc2)cc1OC`: 162 to 163 °C.
In the case of `CCCCCc1cc2c(=O)oc(C(=O)OCC)nc2s1` it was 69.6 to 70.5 °C; in that of `Cn1cnnc1C(c1ccc(I)cc1)c1cc2c3c(c1)c(-c1cccc(Cl)c1)cc(=O)n3CC2` (stereo not drawn), 194 °C; in that of `Cc1ccccc1-c1cc2cc(O)c(Cl)c(Cl)c2s1`, 106 to 107 °C.
Regarding `O=C(Nc1cc2ncc(CN3CCCC3)cc2cc1F)c1ccc(-c2ccc(F)cc2)cc1`, the melting point was 198 to 200 °C.
With `CCCCOC(=O)C(C)Oc1ccc(COc2ccc(Cl)cc2)cc1` (stereo not drawn), the melting point was determined as 66 °C.
In turn, `COc1ccc(C=O)nc1I` registered a melting point of 118 to 121 °C.
Next, `NC(=O)c1[nH]cnc1OC(=O)C=Cc1ccccc1`: 170 to 175 °C; `CCCCCCCCCCCCCCCCNc1ccc(C(=O)NS(=O)(=O)c2ccccc2)cc1`: 136 to 138 °C.
In turn, `CCn1c(=O)c2[nH]c(/C=C/c3ccc(F)cc3)nc2n(CC)c1=O` yielded a melting point greater than 270 °C.
In the case of `C[Si](C)(C)c1ccc(C(=O)Nc2nnn[nH]2)o1` it was 247 to 248 °C; in that of `CC(C)P1(=O)c2ccccc2CN1c1cccc(C(F)(F)F)c1` (stereo not drawn), 117 to 119 °C.
Next, `O=C1C=CC(=O)N1c1cccc(I)c1`: 154 to 155 °C; `Clc1cnn2c(-c3ccccn3)ccnc12`: 141 to 143 °C.
For the compound `CCOC(=O)c1nc(-c2c(Cl)cc(C(F)(F)F)cc2Cl)[nH]c1C#N`, the melting point was in the range of 180 to 181 °C.
In the case of `CCCC(=O)CN1CCC(CCN2CCN(c3cccc(C)c3C)CC2)CC1` it was 47 °C.
In the case of `OC(C=C(Cl)Cl)(Cn1cncn1)c1ccc(Cl)cc1` (stereo not drawn), the melting point was in the range of 95 to 99 °C.
In the case of `CCNC(=O)CCc1cnoc1-c1ccccc1`, the melting point was 75 to 76 °C.
As for `CCCN(C(=O)COc1c(C)cccc1C)C1CCc2c(ccc(O)c2O)C1` (stereo not drawn), the melting point is 153 to 155 °C.
Consider `Cc1nc(N)nc(N)c1C=CC(C)(C)c1ccc(Cl)cc1`, for which the melting point is 195 to 200 °C.
Turning to `COc1ccnc(N2CCN(C(=O)c3cc4ccccc4[nH]3)CC2)n1`, the melting point was in the range of 202 to 203 °C.
In the case of `CCOC(=N)c1sc2ccc(Cl)cc2c1O` it was 236 °C; in that of `CC(C)(C)c1cc(CON2C(=O)COc3ccc(C=C4SC(=S)NC4=O)cc32)cc(C(C)(C)C)n1`, greater than 300 °C.
For `Cc1nc(C(C)(O)c2ccsc2)sc1CCO` (stereo not drawn), the melting point fell in the range of 127 to 129 °C.
Consider `COc1cc(N(C)C)nc(NC(=O)NS(=O)(=O)c2ccccc2Cl)n1`, for which the melting point is 224 to 226 °C.
In the case of `Cc1cc(OC(F)(F)C(F)C(F)(F)F)ccc1NC(=O)c1cccc(I)c1` (stereo not drawn) it was 188 °C.
Next, `CN(C)CCc1ccc(N)cc1`: 40 °C; `N#CC1(Nc2ccccc2)CCN(C2C3CCCC2CCC3)CC1` (stereo not drawn): 168 °C.
With `O=C(Nc1nc(C(F)(F)F)c(I)s1)c1c(Cl)cccc1Cl`, the melting point lay in the range of 157 to 159 °C.
Next, `COc1cc(F)c(CN(C=O)CCc2ccc(O)cc2)cc1O`: 153 to 168 °C.
Next, `Brc1csc2ncnc(NCc3ccccn3)c12`: 127 to 129 °C.
In the case of `CCCCCCCCC(C)C(=O)NCl` (stereo not drawn) it was 56 to 57 °C; in that of `COc1ccc(N2CCN(c3c(C)c(C)c4c(c3C)C(N3CCN(C)CC3)C(C)(C)O4)CC2)cc1` (stereo not drawn), 94 to 96 °C.
`O=C(NC1CCCCC1)N(CCCN1CCC(Cc2ccccc2)CC1)c1ccccc1` showed a melting point of 106 to 108 °C.
In the case of `NC(=O)c1cccc(-c2ccc(Cl)c3cc(Cc4cc(F)cc(Cl)c4)sc23)c1` it was 169 to 170 °C.
Compound `O=S1CC2CC(CN(Cc3ccccc3)C2)C1` (stereo not drawn) gave a melting point of 137 to 138 °C.
With `Fc1ccc(F)c(C(Sc2ccc(Cl)cc2)c2ccncc2Cl)c1` (stereo not drawn), the melting point was 70 to 72 °C.
`CCOC(=O)c1sc(-n2ccc(O)cc2=O)nc1C` came in with a melting point of 270 to 273 °C.
Next, `Cc1ccn(-c2ccc(-c3nc4cccnc4n3-c3ccc(CCNCC(O)COc4ccc(O)cc4)cc3)c(Cl)c2)n1` (stereo not drawn): 87 to 89 °C; `CC(C(=O)NCCCCn1cnc2c(N)nc3ccccc3c21)c1ccc(-c2ccccc2)c(F)c1` (stereo not drawn): 76.1 to 79.9 °C; `CCC(=O)NCCCSc1ccncc1`: 50 to 51 °C.
Next, `Nc1cc(=O)n(-c2c(Cl)cc(C(F)(F)F)cc2Cl)[nH]1`: 206 to 207 °C.
Next, `O=C(Nc1ccccn1)Nc1cccc2c1C1CC3(CCN1C2=O)OCCO3` (stereo not drawn): 178 to 180 °C.
In turn, `CCc1c([N+](=O)[O-])c(C(N)=O)nn1C1CN(CC)C1` gave a melting point of 177 to 179 °C.
In the case of `N#Cc1nc(NCc2cnn(-c3c(Cl)cc(C(F)(F)F)cc3Cl)n2)[nH]c1C#N` it was 213 to 215 °C.
In the case of `Cc1ccc(Cn2c(=O)c3c(Cl)cc(Cl)cc3n(Cc3ccccc3)c2=O)o1` it was 159 to 161 °C; in that of `COC(=O)N[C@@H](Cc1ccccc1)C(=O)CCl`, 121 to 122 °C; in that of `Oc1ccc(Cl)nc1Cl`, 136 to 138 °C.
In the case of `CCOC(=O)c1[nH]cc2c1NC1=C(C(=O)CCC1)C2c1ccc(Sc2nc3c(F)c(F)c(F)cc3[nH]2)o1` (stereo not drawn) it was 186 °C; in that of `C=C1CC2C(=CCC3(C)C2CC(C)C3(OC(C)=O)C(C)=O)C2(C)CCC(=O)C=C12` (stereo not drawn), 197 to 198 °C.
For the compound `CCCN(CCC)C1COc2cccc(C(=O)C(C)C)c2C1` (stereo not drawn), the melting point fell in the range of 60 to 62 °C.
The compound `Cc1cc2cc(CN3CCCC3)cnc2cc1NC(=O)c1ccc(-c2ccc(Cl)cc2)nc1` registered a melting point of 232 to 237 °C.
The compound `O=[N+]([O-])c1cnc2ccccc2c1Cl` had a melting point of 118 to 119 °C.
In the case of `Cc1noc2cc3c(cc12)C1(CO3)C(=O)N(Cc2ccc(-c3ccno3)cc2)c2ccccc21` (stereo not drawn) it was 192 to 194 °C; in that of `N#CCCN(CCC#N)CCN(CCC#N)CCC#N`, 63 to 65 °C; in that of `CCN(CC)C(=O)c1ccc2ccccc2c1-c1ccc(OC)cc1`, 114 to 116 °C.
In the case of `C=C(C)Cn1c(N)c(N)c(=O)n(C)c1=O` it was 152 to 153 °C.
Next, `COc1ccc(S(=O)(=O)N2CCc3cccc(-c4cccc(F)c4)c32)cc1`: 180 to 181 °C.
In the case of `COC(=O)c1cc2ccsc2s1`, the melting point fell in the range of 101 to 105 °C.
Next, `CCOC(=O)c1cc(=O)cc(-c2ccc([N+](=O)[O-])cc2)o1`: 160 to 162 °C; `CCCCc1ccc(-n2c(-c3ccc(SC)cc3)nc(SC)c(C#N)c2=O)cc1`: 138 to 141 °C.
Next, `NC(=O)c1ncn2c1CN=C(c1ccccc1)c1cc(Cl)ccc1-2`: 295 to 296 °C.
In the case of `O=c1ccc2c(-c3ccc(O)cc3)nccc2[nH]1` it was greater than 300 °C.
Turning to `CCCCCc1nc2cc(Cl)c(S(N)(=O)=O)cc2[nH]1`, the melting point is 183 to 185 °C.
Take `O=C1COc2cc(NC(=O)C(=O)O)ccc2N1`: the melting point is 232 to 236 °C.
Regarding `COC(=O)c1cc2ccc3[nH]ccc3c2[nH]1`, the melting point lay within 183 to 184 °C.
In turn, `Cc1ccc(CSC2=C(O)CC(C)(C)CC2=O)cc1` showed a melting point of 100 to 102 °C.
Turning to `CON=C1CN(c2nc3c(cc2F)c(=O)c(C(=O)O)cn3C2CC2)CC12CN(C(=O)OC(C)(C)C)C2`, the melting point was 278 to 279 °C.
Next, `COc1ccc2c(c1)Sc1cc(OC)ccc1N2`: 194 to 196 °C.
Take `Cn1cc(-c2cc3cccnc3[nH]2)c2ccc(C(=O)Nc3nc[nH]n3)cc21`: the melting point was 343 to 345 °C.
Turning to `COCCNc1cc(Cl)nc(-c2ccccc2)n1`, the melting point lay within 128 to 130 °C.
Next, `CCCCc1cc(C(O)=S)cc(N)c1C(=O)c1ccccc1`: 144 to 145 °C; `FC(F)(F)c1cnc(CNC(=S)Nc2ccccc2Cl)c(Cl)c1`: 126 °C; `NS(=O)(=O)c1ccc(-c2cnn(Cc3cccc(F)c3)c(=O)c2-c2ccc(F)cc2)cc1`: 220 to 222 °C.
In the case of `Cc1cc(N2CNC(=O)C23CCN(CCCn2c(=O)[nH]c4ccccc42)CC3)ccc1Cl`, the melting point was 209 °C.
Compound `COc1cc2ccccc2cc1C(=O)NNC(=O)c1cc2ccccc2cc1OC` showed a melting point of 260 to 263 °C.
The compound `O=C(O)C1CCc2c(c3ccccc3n2Cc2ccccc2)C1` (stereo not drawn) displayed a melting point of 195 to 196 °C.
`COc1ccc(C(=NOCC(=O)O)c2ccc(OC)cc2)cc1` registered a melting point of 105 to 107 °C.
`O=C(O)c1ccc2oc(=O)n(Cc3ccc4[nH]c(=O)[nH]c4c3)c2c1` came in with a melting point of 230 to 231 °C.
In the case of `COc1cc(C2C3=C(COC3=O)Nc3ccc4cn[nH]c4c32)cc(OC)c1OC` (stereo not drawn) it was 278 to 279 °C; in that of `CC(C)(C=O)S(=O)(=O)c1ccccc1`, 103 to 104 °C.
Next, `COc1cc2c(cc1F)C(=Cc1ccc(SC)cc1)C(C)=C2CC(=O)O`: 172 to 174 °C.
In the case of `COC(=O)c1cnn2c(O)cc(C(F)(F)F)nc12`, the melting point is 216 to 217 °C.
Next, `CC1(C)Cc2ccccc2C1NC=NC#N` (stereo not drawn): 164 to 167 °C; `CCOC(=O)c1cn(C2CC2)c2cc(-c3cc(C)nc(CO)c3)c(F)cc2c1=O`: 240 °C; `CC1CC2CCC=C3C=C(Cl)NCC1=C32` (stereo not drawn): 279 to 281 °C.
Next, `NC(=S)c1ncn(C2OC(CO)C(O)C2O)n1` (stereo not drawn): 173 to 175 °C; `CC(C)(C)OC(=O)N[C@@H](Cc1ccccc1)C(=O)CCl`: 101 to 102 °C; `CNC(=O)ON=C1N=C(C)C(C)(CC(C)C)S1` (stereo not drawn): 99 to 101 °C.
Consider `COc1cccc(-c2ccc(-c3ccccc3S(=O)(=O)Nc3onc(C)c3C)cc2)n1`, for which the melting point is 132 to 134 °C.
In the case of `COC(=O)NC(=O)NS(=O)(=O)c1ccc(Cl)cc1`, the melting point lay in the range of 174 to 175 °C.
In the case of `O=C(NC(=O)c1c(Cl)cccc1OCc1ccccc1)Nc1ccc(C(F)(F)F)cc1` it was 264 °C.

Broadly, the melting point is the temperature, or range, at which the solid turns liquid.
